Measurements reported in US20150038418A1, “NATRIURETIC PEPTIDE COMPOSITIONS AND METHODS OF PREPARATION” (MEDTRONIC, INC., priority 2011, published 2015).

Tested on: Prostaglandin E2 (PGE2)
Assay: Serum Prostaglandin E2 after 6 weeks subcutaneous infusion of VD in Dahl/SS rats
Type: in vivo, rat
Settings: 4% salt diet
From the text: The pharmacodynamic effects of VD were investigated in a rat model. Forty male Dahl/SS rats were shipped to the animal facilities at PhysioGenix, Inc. (Milwaukee, Wis.). The rats were maintained on a low-salt diet and allowed to acclimate. After acclimation, animals had baseline parameters collected while on the low-salt diet. Animals were then randomly assigned to one of 4 groups (10 animals per group):
1. Vehicle Control; low-salt diet, n=10 2. Vehicle Control; 4% salt diet, n=10 3. Vessel dilator, 100 ng/kg/min infusion of VD, 4% salt diet, n=10 4. Vessel dilator, 300 ng/kg/min infusion of VD, 4% salt diet, n=10
Lyophilized VD peptide (Bachem) was reconstituted in a Tris buffer having the same composition as the Tris buffer of Example 1. The vehicle control groups were infused with a citrate-mannitol-saline buffer (0.66 mg/mL citric acid, 6.43 mg/mL sodium citrate, 40 mg/mL mannitol, 9 mg/mL NaCl). The animals were on a Teklad 7034 (low-salt) diet or Dyets AIN-76A 4% salt diet, as indicated, throughout a 6 week course of the study and had free access to water. […]
Alzet® minipumps (Durect, Corp.) were surgically implanted on Days 1, 15, and 29 of the study to maintain continuous vehicle or drug dispensing at the desired dose for a total period of 6 weeks. At the end of 6 weeks, the serum content of Prostaglandin E2 (PGE2) was measured.

## VD: Vessel Dilator, ANP prohormone a.a. 31-67, EVVPPQVLSEPNEEAGAALSPLPEVPPWTGEVSPAQR (SEQ ID No. 4) (listed as Homo sapiens)
SQ infusion 100 ng/kg·min
  PGE2 concentration in serum versus control groups: similar
SQ infusion 300 ng/kg·min, p<0.05
  PGE2 concentration in serum versus control groups: significantly higher than for any of the other 3 groups
